Values quoted from earlier work in patent publication US20040127476A1, “Oral testosterone delivery system with improved sustained release” (priority 2002, published 2004).

Tests used:
[1] = oral 200 mg twice daily, double peak effect
[2] = oral 200 mg twice daily (two doses)

C[C@]12CC[C@H]3[C@@H](CCC4=CC(=O)CC[C@@]43C)[C@@H]1CC[C@@H]2O [micronized testosterone, testosterone]
time at desired level of serum testosterone, for each peak [1]: about 4 hours
time with total serum testosterone within the normal range [2]: greater than 12 h
